According to patent US8637561B2, “Linked diimidazole derivatives” (Enanta Pharmaceuticals, Inc., priority 2009, dated 2014):

These compounds were tested on HCV 1b genotype replicon (assay: HCV replicon assay (qRT-PCR or luciferase), genotype 1b). Conditions: Hepatitis C virus, read-out: Genotype-1b replicon EC50 Range.
Format: cell-based
From the text: HCV replicon cell lines (kindly provided by R. Bartenschlager) isolated from colonies as described by Lohman et al. (Lohman et al. (1999) Science 285: 110-113, expressly incorporated by reference in its entirety) and used for all experiments. The HCV replicon has the nucleic acid sequence set forth in EMBL Accession No.: AJ242651, the coding sequence of which is from nucleotides 1801 to 8406.
The coding sequence of the published HCV replicon was synthesized and subsequently assembled in a modified plasmid pBR322 (Promega, Madison, Wis.) using standard molecular biology techniques. One replicon cell line (“SGR 11-7”) stably expresses HCV replicon RNA which consists of (i) the HCV 5′UTR fused to the first 12 amino acids of the capsid protein, (ii) the neomycin phosphotransferase gene (neo), (iii) the IRES from encephalomyocarditis virus (EMCV), and (iv) HCV NS2 to NS5B genes and the HCV 3′UTR. […]
EC50 values of single agent compounds and combinations were determined by HCV RNA detection using quantitative RT-PCR, according to the manufacturer's instructions, with a TaqMan® One-Step RT-PCR Master Mix Reagents Kit (Cat# AB 4309169, Applied Biosystems) on an ABI Model 7500 thermocycler. The TaqMan primers used for detecting and quantifying HCV RNA were obtained from Integrated DNA Technologies. HCV RNA was normalized to GAPDH RNA levels in drug-treated cells, which is detected and quantified using the Human GAPDH Endogenous Control Mix (Applied Biosystems, AB 4310884E). […] Chemical agent cytotoxicity is evaluated using an MTS assay according to the manufacturer's directions (Promega). […]
In the case of `COC(=O)N[C@@H](C(=O)N1CCC[C@H]1c1ncc(C#Cc2ccc(-c3cnc([C@@H]4CCCN4C(=O)[C@H](NC(=O)OC)c4ccccc4)[nH]3)cc2)[nH]1)c1ccccc1` [Example 299], the EC50 is reported as < 1 nM. `COC(=O)N[C@@H](C(=O)N1CCC[C@H]1c1ncc(CCc2ccc(-c3cnc([C@@H]4CCCN4C(=O)[C@H](NC(=O)OC)c4ccccc4)[nH]3)cc2)[nH]1)c1ccccc1` [Example 361] was tested, and the EC50 was < 1 nM. `COC(=O)N[C@@H](C(=O)N1CCC[C@H]1c1nc(C2=CCC(c3ccc(-c4cnc([C@@H]5CCCN5C(=O)[C@H](NC(=O)OC)c5ccccc5)[nH]4)cc3)CC2)c[nH]1)c1ccccc1` (stereo partly drawn) [Example 1-b] was tested, and the EC50 was < 1 nM.
